Data on two compounds can be found in EP3974434B1, “MACROLIDE DERIVATIVES, PREPARATION METHOD AND APPLICATION THEREOF” (Zhejiang Hisun Pharmaceutical Co., Ltd., priority 2019, dated 2020).

One assay addresses T1, TRKC(G623R) (Homo sapiens, UniProt Q16288, G623R).
T1 construct: purchased SignalChem N18-12CH-10
The assay is described as follows: HTRF KinEASE-TK kinase activity inhibition assay, TRKC(G623R). In kind it is biochemical. The note with it: ATP 100 µM. The source says: (§1) The following method was used to determine the inhibition degrees of the compounds of the present invention on the activity of recombinant human NTRK family kinase in vitro. In this method, HTRF®KinEASE-TK tyrosine kinase kit (article number: 62TK0PEB) of Cisbio company was used, and the principle of the kit was based on time-resolved fluorescence resonance energy transfer (TF-FRET), and the inhibition of the compounds on the activity of the NTRK kinase was reflected by determining a phosphorylation degree of a biotinylated polypeptide substrate mediated by NTRK kinase. For detailed experimental operation, please refer to the kit instruction. Recombinant human wild-type NTRK proteins were purchased from Carna bioscience (the article numbers were TRKA #08-186, TRKB #08-187 and TRKC #08-197 respectively), and recombinant human mutant NTRK proteins were purchased from SignalChem (the article numbers were TRKA G595R #N16-12BG-10, TRKA G667C # N16-12CG-10, and TRKC G623R # N18-12CH-10 respectively).
The experimental methods were operated according to the steps in the kit instruction, and were briefly described as follows: a test compound was first dissolved in DMSO to prepare a storage solution, and then diluted in gradient with a buffer provided in the kit. A final concentration of the test compound in the reaction system ranged from 1,000 nM to 0.004 nM. An ATP Km value concentration of each NTRK protein was determined by using an ATP solution diluted in gradient (Sangon Biotech (Shanghai) Co., Ltd., A600311). According to the Km value obtained, the ATP concentrations in the reaction system were set as 100 µM for TRKA, 10 µM for TRKB, 50 µM for TRKC, 7 µM for TRKA(G595R), 1 µM for TRKA(G667C) and 100 µM for TRKC(G623R). The reaction was carried out in a 384-well microplate. Firstly, the compound and a certain amount of corresponding NTRK protein were added to the wells and incubated for 5 minutes to 10 minutes at room temperature. Then, the ATP solution and the biotinylated polypeptide substrate solution were added to the reaction solution and incubated with shaking at room temperature for 60 minutes. […] After incubation, fluorescence intensity values of each well at an excitation wavelength of 304 nm, and emission wavelengths of 620 nm and 665 nM were determined in a TF-FRET mode on a microplate reader. Compared with the fluorescence intensity ratio of a control group (0.1% DMSO), the percentage inhibition rates of the compound at each concentration were calculated, and the IC50 value of the compound was obtained by performing nonlinear regression analysis for logarithmic value of the compound concentration - inhibition rate by GraphPad Prism 5 software, which can be seen in Table 1. […]

For assay [1], the system named is H2228 (human lung cancer cells). In words: Cell proliferation assay (CellTiter-Glo), H2228. The assay is classed as cell-based. To be noted: NCI-H2228, 72 hours, EML4-ALK fusion. The source says: The following method was used to determine the effects of the compounds of the present invention on cell proliferation. H2228 cells (containing EML4-ALK fusion) were purchased from Cell Resource Center of Shanghai Institutes for Biological Sciences, Chinese Academy of Sciences. KARPAS-299 cells (containing NPM-ALK fusion) were purchased from Nanjing COBIOER Biotechnology Co., Ltd. The above two cell lines were used to determine the inhibition of the compounds on cell activities. The cells were cultured in an RPMI 1640 medium containing 10% fetal bovine serum, 100 U penicillin, 100 µg/mL streptomycin, and 1 mM Sodium Pyruvate. The cells were cultured in a 5% CO2 incubator at 37°C. The activity of the cells was determined by CellTiter-Glo® Luminescent Cell Viability Assay kit (Promega, article number: G7573).
The experimental methods were operated according to the steps in the kit instruction, and were briefly described as follows: a test compound was first dissolved in DMSO to prepare a storage solution, and then diluted in gradient with the corresponding cell culture medium to prepare a test sample. […] After the culture, 50 µL of CellTiter-Glo detection solution was added to each well, shaken for 5 minutes, and then stood for 10 minutes, and the luminescence values of each well were read on the microplate reader using a Luminance mode. […]

For another assay, the target named is T2, TRKA(G667C) (Homo sapiens, UniProt P04629, G667C).
T2 construct: purchased SignalChem N16-12CG-10
T2 sequence (P04629 33-796 G667C): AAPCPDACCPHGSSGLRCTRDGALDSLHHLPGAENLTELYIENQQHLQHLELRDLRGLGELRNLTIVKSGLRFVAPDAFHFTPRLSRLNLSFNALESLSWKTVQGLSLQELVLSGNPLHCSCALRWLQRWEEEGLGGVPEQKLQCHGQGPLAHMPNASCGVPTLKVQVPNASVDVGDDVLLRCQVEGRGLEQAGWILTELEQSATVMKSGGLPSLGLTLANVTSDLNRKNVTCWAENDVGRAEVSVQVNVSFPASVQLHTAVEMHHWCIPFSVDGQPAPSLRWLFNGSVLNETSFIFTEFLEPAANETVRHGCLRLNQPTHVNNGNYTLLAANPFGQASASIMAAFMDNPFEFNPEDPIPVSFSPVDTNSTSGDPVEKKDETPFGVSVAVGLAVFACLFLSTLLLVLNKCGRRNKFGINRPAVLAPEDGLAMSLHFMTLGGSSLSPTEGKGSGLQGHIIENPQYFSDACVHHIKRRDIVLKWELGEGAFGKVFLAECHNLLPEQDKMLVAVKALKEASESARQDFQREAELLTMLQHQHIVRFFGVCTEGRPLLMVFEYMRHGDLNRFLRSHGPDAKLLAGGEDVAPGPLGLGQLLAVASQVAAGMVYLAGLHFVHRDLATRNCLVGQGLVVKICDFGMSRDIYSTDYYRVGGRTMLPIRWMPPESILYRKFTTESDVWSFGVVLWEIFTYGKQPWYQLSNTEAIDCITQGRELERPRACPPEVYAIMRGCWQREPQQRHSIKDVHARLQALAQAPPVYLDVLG
In words: HTRF KinEASE-TK kinase activity inhibition assay, TRKA(G667C). The assay is classed as biochemical. The note with it: ATP 1 µM.
Source text: as §1
The experimental methods were operated according to the steps in the kit instruction, and were briefly described as follows: a test compound was first dissolved in DMSO to prepare a storage solution, and then diluted in gradient with a buffer provided in the kit. A final concentration of the test compound in the reaction system ranged from 1,000 nM to 0.004 nM. An ATP Km value concentration of each NTRK protein was determined by using an ATP solution diluted in gradient (Sangon Biotech (Shanghai) Co., Ltd., A600311). According to the Km value obtained, the ATP concentrations in the reaction system were set as 100 µM for TRKA, 10 µM for TRKB, 50 µM for TRKC, 7 µM for TRKA(G595R), 1 µM for TRKA(G667C) and 100 µM for TRKC(G623R). The reaction was carried out in a 384-well microplate. Firstly, the compound and a certain amount of corresponding NTRK protein were added to the wells and incubated for 5 minutes to 10 minutes at room temperature. Then, the ATP solution and the biotinylated polypeptide substrate solution were added to the reaction solution and incubated with shaking at room temperature for 60 minutes. Then, an anti-phosphorylated tyrosine antibody coupled with a europium compound and streptavidin coupled with modified allophycocyanin XL665 were added to the reaction, and continuously incubated with shaking at room temperature for 1 hour. After incubation, fluorescence intensity values of each well at an excitation wavelength of 304 nm, and emission wavelengths of 620 nm and 665 nM were determined in a TF-FRET mode on a microplate reader. Compared with the fluorescence intensity ratio of a control group (0.1% DMSO), the percentage inhibition rates of the compound at each concentration were calculated, and the IC50 value of the compound was obtained by performing nonlinear regression analysis for logarithmic value of the compound concentration - inhibition rate by GraphPad Prism 5 software, which can be seen in Table 1. Table 1 IC50 data of the compounds of the present invention on TRK enzyme activity inhibition

T1 sequence (Q16288 32-839 G623R): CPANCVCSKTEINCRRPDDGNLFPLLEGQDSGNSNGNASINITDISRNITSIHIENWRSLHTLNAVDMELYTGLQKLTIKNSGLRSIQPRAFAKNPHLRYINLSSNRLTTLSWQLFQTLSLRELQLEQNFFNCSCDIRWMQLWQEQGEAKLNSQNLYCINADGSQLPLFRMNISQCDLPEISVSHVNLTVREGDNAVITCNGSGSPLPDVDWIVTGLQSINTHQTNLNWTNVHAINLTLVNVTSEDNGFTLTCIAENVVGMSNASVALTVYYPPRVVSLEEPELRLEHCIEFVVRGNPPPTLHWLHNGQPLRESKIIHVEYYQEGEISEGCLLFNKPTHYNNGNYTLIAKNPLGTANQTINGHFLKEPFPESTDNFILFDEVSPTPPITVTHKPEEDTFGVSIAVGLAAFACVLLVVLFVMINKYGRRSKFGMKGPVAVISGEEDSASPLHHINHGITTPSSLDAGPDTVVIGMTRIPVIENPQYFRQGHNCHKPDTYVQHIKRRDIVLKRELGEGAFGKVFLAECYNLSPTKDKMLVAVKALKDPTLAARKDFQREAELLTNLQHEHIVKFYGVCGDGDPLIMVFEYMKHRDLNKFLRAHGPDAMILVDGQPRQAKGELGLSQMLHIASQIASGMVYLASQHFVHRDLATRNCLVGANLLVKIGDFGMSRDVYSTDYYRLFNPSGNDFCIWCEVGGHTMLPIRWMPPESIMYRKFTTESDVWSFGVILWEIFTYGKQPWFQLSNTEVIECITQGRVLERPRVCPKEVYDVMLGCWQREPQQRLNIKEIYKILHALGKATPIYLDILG

`C[C@H]1Nc2ccn3ncc(c3n2)C(=O)NC[C@@]2(C)Cc3cc(F)cc1c3O2` [Example 8, (3R,11R)-6-fluoro-3,11-dimethyl-10-oxa-2,13,17,1 8,21-pentaazapentacyclo[13.5.2.1^8,11.0^4,9.0^18,22]tric osa-1(21),4,6,8,15(22),16,19-heptaen-14-one]: the results for the IC50 (against TRKC(G623R); in assay [1]) were 13.5 nM and 164 nM, respectively. `C[C@H]1Nc2ccn3nc(N)c(c3n2)C(=O)NC[C@@]2(C)Cc3cc(F)cc1c3O2` [Example 25, (3R,11R)-16-amino-6-fluoro-3,11-dimethyl-10-oxa-2,13,17,18,21-pentaazapentacyclo[13.5.2.1^8,11.0^4,9. 0^18,22]tricosa-1(21),4,6,8,15(22),16,19-heptaen-14-one] registered an IC50 on TRKA(G667C) of 9.5 nM.

As usually defined, the IC50 is the point on the concentration scale where inhibition reaches its midpoint. A low value points to greater potency in that assay.
